Measurements reported in the supplement of paper PMC10307832.

What was measured:
Assay in all cases: relative viability (nuclei count vs DMSO), 5 days (fraction); higher = more cells survive
SW 1573 = system: SW 1573
Outline: (§1)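 The day after seeding in 1536-well plates, lung cancer cell lines were treated by pin tool with a single drug, or with a fixed anchor-drug dose together with five library-drug doses (not always all listed) in √10 steps. After 5 days, a combined fix-and-stain solution (final 0.05% Triton X-100, 1% formaldehyde, 1 ug/ml Hoechst) was added. Nuclei counted on 4× images gave relative viability as treated counts over vehicle counts, reported as the median of duplicate plates.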

ChaGo-K-1 = system: ChaGo-K-1
Outline: as §1

LOU-NH91 = system: LOU-NH91
Outline: as §1

NCI-H1666 = system: NCI-H1666
Outline: as §1

SK-LU-1 = system: SK-LU-1
Outline: as §1

NCI-H3122 = system: NCI-H3122
Outline: as §1

RERF-LC-KJ = system: RERF-LC-KJ
Outline: as §1

NCI-H1563 = system: NCI-H1563
Outline: as §1

NCI-H2126 = system: NCI-H2126
Outline: as §1

NCI-H23 = system: NCI-H23
Outline: as §1

SW 900 = system: SW 900
Outline: as §1

EMC-BAC-2 = system: EMC-BAC-2
Outline: as §1

NCI-H2405 = system: NCI-H2405
Outline: as §1

NCI-H322M = system: NCI-H322M
Outline: as §1

HCC-827 = system: HCC-827
Outline: as §1

NCI-H1975 = system: NCI-H1975
Outline: as §1

HCC-78 = system: HCC-78
Outline: as §1

LXF-289 = system: LXF-289
Outline: as §1

EPLC-272H = system: EPLC-272H
Outline: as §1

LK-2 = system: LK-2
Outline: as §1

NCI-H2085 = system: NCI-H2085
Outline: as §1

LU99A = system: LU99A
Outline: as §1

LCLC-103H = system: LCLC-103H
Outline: as §1

In the case of `O=C(O)c1ccc(-c2c[nH]c3ncc(-c4ccccc4)cc23)cc1C1CCCC1` + COc1cccc2cc(-c3nc([C@H]4CC[C@H](C(=O)O)CC4)n4ncnc(N)c34)[nH]c12 [OSI-027] (partner 0.5 µM), the relative viability (SW 1573; first compound 0.04 µM) is reported as 0.685, the relative viability (SW 1573; first compound 0.1265 µM) is reported as 0.74 and the relative viability (SW 1573; first compound 0.4 µM) is reported as 0.55. For the same compound, the relative viability (SW 1573; first compound 1.265 µM) was 0.447, the relative viability (ChaGo-K-1; first compound 0.04 µM) was 0.651 and the relative viability (ChaGo-K-1; first compound 0.1265 µM) was 0.595. It also gave a relative viability (ChaGo-K-1; first compound 0.4 µM) of 0.532, a relative viability (ChaGo-K-1; first compound 1.265 µM) of 0.51 and a relative viability (LOU-NH91; first compound 0.04 µM) of 0.743. The relative viability (LOU-NH91; first compound 0.1265 µM) was 0.824, the relative viability (LOU-NH91; first compound 0.4 µM) was 0.733 and the relative viability (LOU-NH91; first compound 1.265 µM) was 0.73. For the same compound, the relative viability (NCI-H1666; first compound 0.04 µM) was 0.846, the relative viability (NCI-H1666; first compound 0.1265 µM) was 0.884 and the relative viability (NCI-H1666; first compound 0.4 µM) was 0.906. The relative viability (NCI-H1666; first compound 1.265 µM) was 0.624, the relative viability (SK-LU-1; first compound 0.04 µM) was 0.329 and the relative viability (SK-LU-1; first compound 0.1265 µM) was 0.391. For the same compound, the relative viability (SK-LU-1; first compound 0.4 µM) was 0.324, the relative viability (SK-LU-1; first compound 1.265 µM) was 0.274 and the relative viability (NCI-H3122; first compound 0.04 µM) was 0.973. For the same compound, the relative viability (NCI-H3122; first compound 0.1265 µM) was 1.12, the relative viability (NCI-H3122; first compound 0.4 µM) was 0.922 and the relative viability (NCI-H3122; first compound 1.265 µM) was 0.717. The relative viability (RERF-LC-KJ; first compound 0.04 µM) was 0.561, the relative viability (RERF-LC-KJ; first compound 0.1265 µM) was 0.598 and the relative viability (RERF-LC-KJ; first compound 0.4 µM) was 0.582. For the same compound, the relative viability (RERF-LC-KJ; first compound 1.265 µM) was 0.527, the relative viability (NCI-H1563; first compound 0.04 µM) was 0.72 and the relative viability (NCI-H1563; first compound 0.1265 µM) was 0.753. It also gave a relative viability (NCI-H1563; first compound 0.4 µM) of 0.783, a relative viability (NCI-H1563; first compound 1.265 µM) of 0.798 and a relative viability (NCI-H2126; first compound 0.04 µM) of 0.749. It also gave a relative viability (NCI-H2126; first compound 0.1265 µM) of 0.732, a relative viability (NCI-H2126; first compound 0.4 µM) of 0.827 and a relative viability (NCI-H2126; first compound 1.265 µM) of 0.618. For the same compound, the relative viability (NCI-H23; first compound 0.04 µM) was 0.599, the relative viability (NCI-H23; first compound 0.1265 µM) was 0.71 and the relative viability (NCI-H23; first compound 0.4 µM) was 0.576. For the same compound, the relative viability (NCI-H23; first compound 1.265 µM) was 0.531, the relative viability (SW 900; first compound 0.04 µM) was 0.696 and the relative viability (SW 900; first compound 0.1265 µM) was 0.493. For the same compound, the relative viability (SW 900; first compound 0.4 µM) was 0.631, the relative viability (SW 900; first compound 1.265 µM) was 0.595 and the relative viability (EMC-BAC-2; first compound 0.04 µM) was 0.401. The relative viability (EMC-BAC-2; first compound 0.1265 µM) was 0.388, the relative viability (EMC-BAC-2; first compound 0.4 µM) was 0.39 and the relative viability (EMC-BAC-2; first compound 1.265 µM) was 0.365. For the same compound, the relative viability (NCI-H2405; first compound 0.04 µM) was 0.653, the relative viability (NCI-H2405; first compound 0.1265 µM) was 0.626 and the relative viability (NCI-H2405; first compound 0.4 µM) was 0.617. The relative viability (NCI-H2405; first compound 1.265 µM) was 0.605, the relative viability (NCI-H322M; first compound 0.04 µM) was 0.546 and the relative viability (NCI-H322M; first compound 0.1265 µM) was 0.588. For the same compound, the relative viability (NCI-H322M; first compound 0.4 µM) was 0.674, the relative viability (NCI-H322M; first compound 1.265 µM) was 0.521 and the relative viability (HCC-827; first compound 0.04 µM) was 0.65. It also gave a relative viability (HCC-827; first compound 0.1265 µM) of 0.81, a relative viability (HCC-827; first compound 0.4 µM) of 0.725 and a relative viability (HCC-827; first compound 1.265 µM) of 0.77. For the same compound, the relative viability (NCI-H1975; first compound 0.04 µM) was 0.7, the relative viability (NCI-H1975; first compound 0.1265 µM) was 0.871 and the relative viability (NCI-H1975; first compound 0.4 µM) was 0.648. The relative viability (NCI-H1975; first compound 1.265 µM) was 0.629, the relative viability (HCC-78; first compound 0.1265 µM) was 0.396 and the relative viability (HCC-78; first compound 0.4 µM) was 0.386. For the same compound, the relative viability (HCC-78; first compound 1.265 µM) was 0.327, the relative viability (LXF-289; first compound 0.04 µM) was 0.848 and the relative viability (LXF-289; first compound 0.1265 µM) was 0.879. It also gave a relative viability (LXF-289; first compound 0.4 µM) of 0.764, a relative viability (LXF-289; first compound 1.265 µM) of 0.581 and a relative viability (EPLC-272H; first compound 0.04 µM) of 0.266. It also gave a relative viability (EPLC-272H; first compound 0.1265 µM) of 0.283, a relative viability (EPLC-272H; first compound 0.4 µM) of 0.292 and a relative viability (EPLC-272H; first compound 1.265 µM) of 0.281. For the same compound, the relative viability (LK-2; first compound 0.04 µM) was 0.202, the relative viability (LK-2; first compound 0.1265 µM) was 0.23 and the relative viability (LK-2; first compound 0.4 µM) was 0.165. It also gave a relative viability (LK-2; first compound 1.265 µM) of 0.195, a relative viability (NCI-H2085; first compound 0.04 µM) of 0.867 and a relative viability (NCI-H2085; first compound 0.1265 µM) of 0.761. The relative viability (NCI-H2085; first compound 0.4 µM) was 0.73, the relative viability (NCI-H2085; first compound 1.265 µM) was 0.554 and the relative viability (LU99A; first compound 0.04 µM) was 0.314. For the same compound, the relative viability (LU99A; first compound 0.1265 µM) was 0.309, the relative viability (LU99A; first compound 0.4 µM) was 0.364 and the relative viability (LU99A; first compound 1.265 µM) was 0.3. The relative viability (LCLC-103H; first compound 0.04 µM) was 0.444, the relative viability (LCLC-103H; first compound 0.1265 µM) was 0.554 and the relative viability (LCLC-103H; first compound 0.4 µM) was 0.389. The relative viability (LCLC-103H; first compound 1.265 µM) was 0.452.
